Source: paper PMC10817945, “Design of a novel analogue peptide with potent antibiofilm activities against Staphylococcus aureus based upon a sapecin B-derived peptide” (Scientific Reports, 2024)
≈ marks a conversion by molar mass, not a printed value. Where two headings read alike, the source gives them in different places. Non-standard residues stand in square brackets, D forms with d. Residues, ends and D or L forms follow the SMILES beside them.

Tests used:
[1] = system: preformed S. aureus biofilms; format: cell-based, Staphylococcus aureus
Procedure: The eradicative activity of KLK and mKLK peptides against preformed S. aureus biofilms was evaluated by determining MBEC, as previously described. The 24-h biofilms developed in TSB in a 96-well plate were washed three times with 200 μl PBS solution. Concentrations of the peptides ranging from 2 to 1024 µg/ml were prepared. A volume of 100 μl of each concentration was added to a corresponding well, and plates were incubated for 18–20 h at 37 °C. Then, wells were washed with sterile PBS solution, and 100 μl of PBS solution was added. The wells were thoroughly scraped with a sterile pipette tip, vortexed and sonicated to release the biofilm cells from the well surface. Subsequently, 10 μl of well contents were plated on MHA. Colonies were counted after 20 h at 37 °C. The MBEC was defined as the lowest concentration of peptide that inhibited bacterial regrowth.

[2] = system: S. aureus isolates; assay: microbe, parasite or virus in culture; format: cell-based, Staphylococcus aureus
Procedure: Minimum inhibitory concentrations (MIC) of KLK, mKLK, and vancomycin were determined using microdilution broth assay according to clinical and laboratory standards institute (CLSI) guidelines with some modifications. Briefly, overnight cultures were diluted in Muller-Hinton broth (MHB; Merck, Germany) to achieve a final density of 5 × 10^5 CFU/ml. A volume of 100 μl of bacterial suspension was added to wells of sterile 96-well plates containing 100 μl of two-fold peptide dilutions, ranging from 0.25 to 256 µg/ml. Vancomycin was used as a positive control in this assay. […] MBC was determined by removing samples from wells with no visible growth, serially diluting, and plating on Mueller Hinton (MH) agar plates for CFU counting.

[3] = in vitro; details: human
Procedure: (§1) The assay was performed using fresh human blood samples containing citrate phosphate dextrose anticoagulant collected from a blood bank (Iranian Blood Transfusion Organization). Human red blood cells (RBC) were centrifuged at 1700×g for 5 min; then the supernatant was removed and the erythrocyte pellet was diluted 1:100 in PBS to obtain a 1% erythrocyte suspension. […] Then, 50 μl of the 1% erythrocyte suspension and 50 μl of the peptides were mixed and added to wells of a 96-well polypropylene conical bottom microplate and incubated at 37 °C for 1 h. Following centrifugation of the samples at 1700×g for 5 min, 50 μl of the supernatant was transferred to wells of a 96-well flat-bottom plate for the absorbance measurement at 405 nm in a microplate reader. Identical volumes of Triton X-100 (1%) and PBS were used as positive and negative controls, respectively. The selectivity indexes (SI) were also determined as a toxicity indicator.

[4] = system: Human red blood cells; assay: in vitro
Procedure: as §1

[5] = system: one MRSA and reference strain (ATCC25923); assay: Time-kill kinetics assay
Procedure: The peptide-free control was included for each strain. Following incubation at 37 °C for 0, 0.25, 0.5, 1, 2, 4, 5, and 24 h, each sample was serially diluted, plated onto Mueller–Hinton (MH) agar (Merck, Germany) plates and incubated at 37 °C. The viable plate count method was performed after incubation for 24 h and the counts were expressed as Log CFU/ml[44].

[6] = system: S. aureus strains; assay: Inhibition of bacterial surface attachment (crystal violet); format: cell-based, Staphylococcus aureus
Procedure: To investigate the inhibitory effect of KLK and mKLK peptides on bacterial surface attachment and biofilm formation, the bacterial suspension in TSB with a concentration of 10^7 CFU/ml was prepared from overnight culture. An aliquot of 100 μl of the bacterial suspension was added to wells of 96-well plates containing 100 μl of the peptides solution with concentrations of 1×, 1/2× and 1/4× MIC, resulting in the final peptides concentrations of 1/2×, 1/4× and 1/8× MIC. To investigate the inhibitory effect of the peptides on surface attachment the incubation was performed at 37 °C for 2 h and to evaluate their inhibitory activity on biofilm formation the incubation was performed at 37 °C for 24 h. The wells containing only TSB medium were used as negative controls. After incubation, the contents of the wells were removed and washed three times with PBS and the wells were stained with 200 μl of 0.1% crystal violet for 20 min. The plates were washed again and excess dye was removed. A volume of 200 μl of 95% ethanol was added to each well for 20 min and absorbance was measured at 570 nm by a microplate reader.

[7] = system: 24-h S. aureus biofilms; assay: Biofilm dispersal activity (crystal violet); format: cell-based, Staphylococcus aureus
Procedure: To investigate the dispersal activity of KLK and mKLK peptide, the 24-h S. aureus biofilms were prepared in TSB medium in the 96-well plates. Then, the final concentrations of 1×, 2×, and 4 × MIC were prepared for each peptide in the wells. After incubation at 37 °C for 12 h, plates were washed with PBS three times to discard unattached bacteria. Subsequently, plates were stained with 250 μl of 0.5% crystal violet for 20 min at room temperature. Then, the wells were washed and 250 μl 33% acetic acid was added to them. Finally, the absorbance was measured at 570 nm using a microplate reader.

## CC(C)C[C@@H](NC(=O)[C@H](N)CCCCN)C(=O)N[C@H](CCCCN)C(=O)N[C@H](CC(C)C)C(=O)N[C@H](CC(C)C)C(=O)N[C@H](CC(C)C)C(=O)N[C@H](CC(C)C)C(=O)N[C@H](CC(C)C)C(=O)N[C@H](CCCCN)C(=O)N[C@H](CC(C)C)C(=O)N[C@H](CCCCN)C(N)=O [KLK] (H-[dK][dL][dK][dL][dL][dL][dL][dL][dK][dL][dK]-NH2; N-terminus assumed)
[1]; ATCC25923
  MBEC: 512 µg/mL
[1]; MRSA-1
  MBEC: 1024 µg/mL
[1]; MRSA-2
  MBEC: 1024 µg/mL
[1]; MRSA-3
  MBEC: 1024 µg/mL
[1]; MSSA-1
  MBEC: 512 µg/mL
[1]; MSSA-2
  MBEC: 512 µg/mL
[1]; preformed biofilms
  MBEC, range over isolates: 512 to 1024 µg/mL
[2]; ATCC25923
  MIC: 4 µg/mL (≈ 3.03 µM)
[2]; MRSA-1
  MIC: 8 µg/mL (≈ 6.05 µM)
[2]; MRSA-2
  MIC: 8 µg/mL (≈ 6.05 µM)
[2]; MRSA-3
  MIC: 8 µg/mL (≈ 6.05 µM)
[2]; MSSA-1
  MIC: 4 µg/mL (≈ 3.03 µM)
[2]; MSSA-2
  MIC: 4 µg/mL (≈ 3.03 µM)
[2]; three MRSA isolates
  MIC: 8 µg/mL (≈ 6.05 µM)
[2]; two MSSA isolates
  MIC: 4 µg/mL (≈ 3.03 µM)
[3]
  hemolysis at 1 h, 1.56 µM: 10.4%
  hemolysis at 1 h, 3.12 µM: 18.3%
  hemolysis at 1 h, 6.25 µM: 27.1%
  hemolysis at 1 h, 12.5 µM: 34.2%
  hemolysis at 1 h, 25 µM: 42.8%
  hemolysis at 1 h, 50 µM: 71.5%
  hemolysis at 1 h, 75 µM: 80.1%
  hemolysis at 1 h, 100 µM: 88.3%
  hemolysis at 1 h, 150 µM: 92.2%
  hemolysis at 1 h, 200 µM: 95.4%
[4]
  HC50: 38.49 µg/mL
[4]; red cells of human, 1 h
  HC50: 29.1 µM
[5]; ATCC 25923, 1 × MIC (4 μg/ml)
  time after which no regrowth was observed: 30 min
[5]; ATCC 25923, 2 × MIC (8 μg/ml)
  time after which no regrowth was observed: 15 min
[5]; MRSA, 1 × MIC
  time after which no regrowth was observed: 300 min
[5]; MRSA, 1 × MIC (8 μg/ml), within 2 h
  reduction in viable cell count: ~ 1 log
[6]; ATCC25923, 1/2MIC, control 2.136±0.01
  crystal violet absorbance at 570 nm, bacterial attachment, Mean±SD: 1.904±0.08
[6]; ATCC25923, 1/4MIC, control 2.136±0.01
  crystal violet absorbance at 570 nm, bacterial attachment, Mean±SD: 1.965±0.03
[6]; ATCC25923, 1/8MIC, control 2.136±0.01
  crystal violet absorbance at 570 nm, bacterial attachment, Mean±SD: 2.03±0.07
[6]; MRSA-1, 1/2MIC, control 1.861±0.02
  crystal violet absorbance at 570 nm, bacterial attachment, Mean±SD: 1.508±0.03
[6]; MRSA-1, 1/4MIC, control 1.861±0.02
  crystal violet absorbance at 570 nm, bacterial attachment, Mean±SD: 1.712±0.01
[6]; MRSA-1, 1/8MIC, control 1.861±0.02
  crystal violet absorbance at 570 nm, bacterial attachment, Mean±SD: 1.8±0.17
[6]; MRSA-2, 1/2MIC, control 2.311±0.005
  crystal violet absorbance at 570 nm, bacterial attachment, Mean±SD: 2.082±2.02
[6]; MRSA-2, 1/4MIC, control 2.311±0.005
  crystal violet absorbance at 570 nm, bacterial attachment, Mean±SD: 2.146±0.008
[6]; MRSA-2, 1/8MIC, control 2.311±0.005
  crystal violet absorbance at 570 nm, bacterial attachment, Mean±SD: 2.198±0.04
[6]; MRSA-3, 1/2MIC, control 1.491±0.06
  crystal violet absorbance at 570 nm, bacterial attachment, Mean±SD: 1.031±0.07
[6]; MRSA-3, 1/4MIC, control 1.491±0.06
  crystal violet absorbance at 570 nm, bacterial attachment, Mean±SD: 1.369±0.01
[6]; MRSA-3, 1/8MIC, control 1.491±0.06
  crystal violet absorbance at 570 nm, bacterial attachment, Mean±SD: 1.428±0.06
[6]; MSSA-1, 1/2MIC, control 2.107±0.08
  crystal violet absorbance at 570 nm, bacterial attachment, Mean±SD: 1.89±0.002
[6]; MSSA-1, 1/4MIC, control 2.107±0.08
  crystal violet absorbance at 570 nm, bacterial attachment, Mean±SD: 1.925±0.06
[6]; MSSA-1, 1/8MIC, control 2.107±0.08
  crystal violet absorbance at 570 nm, bacterial attachment, Mean±SD: 2.006±0.01
[6]; MSSA-2, 1/2MIC, control 2.061±0.01
  crystal violet absorbance at 570 nm, bacterial attachment, Mean±SD: 1.804±0.03
[6]; MSSA-2, 1/8MIC, control 2.061±0.01
  crystal violet absorbance at 570 nm, bacterial attachment, Mean±SD: 1.958±0.07
[7]; ATCC25923, 1MIC, control 2.79±0.03
  crystal violet absorbance at 570 nm, dispersal activity, Mean±SD: 2.451±0.007
[7]; ATCC25923, 2MIC, control 2.79±0.03
  crystal violet absorbance at 570 nm, dispersal activity, Mean±SD: 2.322±0.02
[7]; ATCC25923, 4MIC, control 2.79±0.03
  crystal violet absorbance at 570 nm, dispersal activity, Mean±SD: 2.017±0.01
[7]; MRSA-1, 1MIC, control 1.903±0.003
  crystal violet absorbance at 570 nm, dispersal activity, Mean±SD: 1.695±0.05
[7]; MRSA-1, 2MIC, control 1.903±0.003
  crystal violet absorbance at 570 nm, dispersal activity, Mean±SD: 1.649±0.06
[7]; MRSA-1, 4MIC, control 1.903±0.003
  crystal violet absorbance at 570 nm, dispersal activity, Mean±SD: 1.426±0.01
[7]; MRSA-2, 1MIC, control 2.014±0.01
  crystal violet absorbance at 570 nm, dispersal activity, Mean±SD: 1.804±0.006
[7]; MRSA-2, 2MIC, control 2.014±0.01
  crystal violet absorbance at 570 nm, dispersal activity, Mean±SD: 1.71±0.01
[7]; MRSA-2, 4MIC, control 2.014±0.01
  crystal violet absorbance at 570 nm, dispersal activity, Mean±SD: 1.643±0.01
[7]; MRSA-3, 2MIC, control 1.255±0.29
  crystal violet absorbance at 570 nm, dispersal activity, Mean±SD: 1.1±0.09
[7]; MRSA-3, 4MIC, control 1.255±0.29
  crystal violet absorbance at 570 nm, dispersal activity, Mean±SD: 0.996±0.04
[7]; MSSA-1, 1MIC, control 1.787±0.1
  crystal violet absorbance at 570 nm, dispersal activity, Mean±SD: 1.589±0.01
[7]; MSSA-1, 2MIC, control 1.787±0.1
  crystal violet absorbance at 570 nm, dispersal activity, Mean±SD: 1.483±0.01
[7]; MSSA-1, 4MIC, control 1.787±0.1
  crystal violet absorbance at 570 nm, dispersal activity, Mean±SD: 1.348±0.01
[7]; MSSA-2, 1MIC, control 2.116±0.006
  crystal violet absorbance at 570 nm, dispersal activity, Mean±SD: 1.858±0.12
[7]; MSSA-2, 2MIC, control 2.116±0.006
  crystal violet absorbance at 570 nm, dispersal activity, Mean±SD: 1.713±0.06
[7]; MSSA-2, 4MIC, control 2.116±0.006
  crystal violet absorbance at 570 nm, dispersal activity, Mean±SD: 1.52±0.001
